Assay results taken from PubChem BioAssay (NCI).
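In this assay, cells in 96-well plates receive the compound at five concentrations for 48 hours. Endpoints are linearly interpolated between the surrounding concentrations. TGI denotes the concentration required for complete inhibition of growth.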

Experiments:
Test in all cases: NCI anticancer screen, dose series, 48 h
786-0 renal = system: 786-0 renal
A498 renal = system: A498 renal
A549 NSCLC = system: A549 NSCLC
ACHN renal = system: ACHN renal
BT-549 breast = system: BT-549 breast
CAKI-1 renal = system: CAKI-1 renal
CCRF-CEM leukemia = system: CCRF-CEM leukemia
COLO 205 colon = system: COLO 205 colon
DU-145 prostate = system: DU-145 prostate
EKVX NSCLC = system: EKVX NSCLC
HCC-2998 colon = system: HCC-2998 colon
HCT-116 colon = system: HCT-116 colon
HCT-15 colon = system: HCT-15 colon
HL-60(TB) leukemia = system: HL-60(TB) leukemia
HOP-62 NSCLC = system: HOP-62 NSCLC
HOP-92 NSCLC = system: HOP-92 NSCLC
HT29 colon = system: HT29 colon
IGROV1 ovarian = system: IGROV1 ovarian
K-562 leukemia = system: K-562 leukemia
KM12 colon = system: KM12 colon
LOX IMVI melanoma = system: LOX IMVI melanoma
M14 melanoma = system: M14 melanoma
MALME-3M melanoma = system: MALME-3M melanoma
MCF7 breast = system: MCF7 breast
MDA-N = system: MDA-N
MOLT-4 leukemia = system: MOLT-4 leukemia
NCI-H226 lung = system: NCI-H226 lung
NCI-H23 lung = system: NCI-H23 lung
NCI-H460 lung = system: NCI-H460 lung
NCI-H522 lung = system: NCI-H522 lung
NCI/ADR-RES ovarian = system: NCI/ADR-RES ovarian
OVCAR-3 ovarian = system: OVCAR-3 ovarian
OVCAR-4 ovarian = system: OVCAR-4 ovarian
OVCAR-5 ovarian = system: OVCAR-5 ovarian
OVCAR-8 ovarian = system: OVCAR-8 ovarian
PC-3 prostate = system: PC-3 prostate
RPMI-8226 leukemia = system: RPMI-8226 leukemia
RXF 393 renal = system: RXF 393 renal
SF-268 CNS = system: SF-268 CNS
SF-295 CNS = system: SF-295 CNS
SF-539 CNS = system: SF-539 CNS
SK-MEL-2 melanoma = system: SK-MEL-2 melanoma
SK-MEL-28 melanoma = system: SK-MEL-28 melanoma
SK-MEL-5 melanoma = system: SK-MEL-5 melanoma
SK-OV-3 ovarian = system: SK-OV-3 ovarian
SN12C renal = system: SN12C renal
SNB-19 CNS = system: SNB-19 CNS
SNB-75 CNS = system: SNB-75 CNS
SR leukemia = system: SR leukemia
SW-620 colon = system: SW-620 colon
T-47D breast = system: T-47D breast
TK-10 renal = system: TK-10 renal
U251 CNS = system: U251 CNS
UACC-257 melanoma = system: UACC-257 melanoma
UO-31 renal = system: UO-31 renal

Measured: TGI

Cc1cc(S(=O)(=O)Nc2nc(N)nc(N(C)C)n2)c(SCC(=O)O)cc1Cl
> 10 µM: all assays above
